According to patent US9650399B2, “Salicylic acid derivatives, pharmaceutically acceptable salt thereof, composition thereof and method of use thereof” (The Governing Council of the University of Toronto, priority 2012, dated 2017):
Like-named read-outs stand apart in the source and are kept apart here.

Key:
[1] = system: leukemia cancer cells (AML-2); assay: IC50 in leukemia cancer cells; format: cell-based; settings: Table 6
BTSC30M = assay: alamarBlue cell viability, BTSC 30M; format: cell-based, human; settings: for IC50: Homo sapiens
Procedure: (§1) First, the library was screened for biological activity against a set of three representative GBM BTSCs derived from GBM patients, including the very aggressive GBM BTSC lines, BTSC73M, BTSC30M, BTSC68EF. Dissociated BTSC spheres were seeded at 1500 cells/96-well and treated with drug compound or vehicle (DMSO) one day after plating. Cell viability following drug treatment was assessed after 72 hrs using the ALAMARBLUE™ assay (Invitrogen) according to the manufacturer's instructions. All culture experiments were performed in triplicate with a minimum of three wells per condition.
(§2) BTSC spheres were dissociated to single cells with the enzyme Accumax (Innovative Technologies), seeded at 1500 cells/96-well and treated with drug or vehicle (DMSO) one day after plating. […] BTSC spheres were dissociated to single cells as above and plated in 96 well plates in triplicate at 3000 cells/96-well. […] Cell viability following drug treatment was assessed three days later using the ALAMARBLUE™ assay (Invitrogen) according to the manufacturer's instructions. All culture experiments were performed in triplicate with a minimum of three wells per condition.

[2] = system: Breast cancer cells (MDA-MB-468); assay: IC50 in breast cancer cells; format: cell-based; settings: Homo sapiens, Table 6
Prostate (DU145) = assay: IC50 in prostate cancer cells; format: cell-based; settings: Homo sapiens, DU-145; Table 6
147EF = assay: alamarBlue cell viability, BTSC 147EF; format: cell-based, human; settings: Table 4 library screen; for IC50: Homo sapiens
Excerpt: BTSC spheres were dissociated to single cells with the enzyme Accumax (Innovative Technologies), seeded at 1500 cells/96-well and treated with drug or vehicle (DMSO) one day after plating. Cytotoxicity studies were repeated independently at Sickkids Hospital using BTSC lines 25M, 67EF, 73EF, 84EF and 127EF. BTSC spheres were dissociated to single cells as above and plated in 96 well plates in triplicate at 3000 cells/96-well. In both sets of experiments drugs were used as serial dilutions within the range of 5 μM to 100 nM in the first set and 25 μM to 10 nM. Cell viability following drug treatment was assessed three days later using the ALAMARBLUE™ assay (Invitrogen) according to the manufacturer's instructions. All culture experiments were performed in triplicate with a minimum of three wells per condition. Table 4 below illustrates a screen of the library against a number of BTSCs using ALAMARBLUE™ assay.

BTSC73M = assay: alamarBlue cell viability, BTSC 73M; format: cell-based, human; settings: alamarBlue; for IC50: Homo sapiens
Procedure: as §1, §2

BTSC68EF = assay: alamarBlue cell viability, BTSC 68EF; format: cell-based, human; settings: Table 4 library screen, alamarBlue; for IC50: Homo sapiens, read-out: 68EF IC50
Procedure: as §1, §2

BTSCs = assay: alamarBlue cytotoxicity across BTSC lines; format: cell-based, human
Procedure: as §1, §2

pSTAT3 (Y705) = assay: Western blot of phosphorylated STAT3 in BTSCs; format: cell-based, human; settings: BTSC 73M, 1 μM inhibitor
Excerpt: Blots were stained with antibodies: phospho-Y705, phospho-S727, Bcl-xL, cyclin D1, PARP and Actin. Bands were visualized with the ECL PLUS™ Western Blotting Detection System and […]™ (Amersham). […] BTSC spheres were lysed in modified RIPA buffer supplemented with Complete Mini protease (Roche) and Halt phosphatase (Thermo Scientific) inhibitor cocktails. […] Blots were stained with the following antibodies: phospho-STAT3 Y705 (1:1000, Cell Signalling Technology), phospho-STAT3 S727 (1:1000, Cell Signalling Technology), STAT3 (1:1000, Santa Cruz Biotechnology), Bcl-xL (1:1000, Cell Signalling Technology), cyclin D1 (1:1000, Cell Signalling Technology) PARP (1:1000, Cell Signalling Technology) and Actin (1:2500, Santa Cruz Biotechnology). HRP conjugated secondary antibodies, goat anti-rabbit (Cell Signalling Technology) were used at 1:2000 and donkey anti-mouse, donkey anti-goat, and goat anti-rabbit, (Calbiochem) were used at 1:6000. Bands were visualized with the ECL Plus Western Blotting Detection System and Hyperfilm (Amersham).

[3] = system: patient-derived pancreatic cancer line (Panc10.05); assay: MTS cell survival, pancreatic cancer line; format: cell-based; settings: Homo sapiens, Panc1005, Panc10.05, 72 h, read-out: ED50 (IC50)
Procedure: Low passage patient-derived pancreatic cancer line (Panc10.05) was plated in 96-well plates (3×10^3 per well) and allowed to attach overnight. STAT3 inhibitors 31, 41, 42 and 38 were added at indicated concentrations. Cell survival was measured 72 h after drug addition with the MTS assay.

AKT1 = target: T1, AKT1 (Homo sapiens, UniProt P31749); assay: HotSpot radiometric kinase assay, AKT1; format: biochemical; settings: 5 uM compound, 10 μM ATP, duplicate (Data 1, Data 2)
T1 construct: purchased Reaction Biology Corporation
T1 sequence (P31749 whole entry): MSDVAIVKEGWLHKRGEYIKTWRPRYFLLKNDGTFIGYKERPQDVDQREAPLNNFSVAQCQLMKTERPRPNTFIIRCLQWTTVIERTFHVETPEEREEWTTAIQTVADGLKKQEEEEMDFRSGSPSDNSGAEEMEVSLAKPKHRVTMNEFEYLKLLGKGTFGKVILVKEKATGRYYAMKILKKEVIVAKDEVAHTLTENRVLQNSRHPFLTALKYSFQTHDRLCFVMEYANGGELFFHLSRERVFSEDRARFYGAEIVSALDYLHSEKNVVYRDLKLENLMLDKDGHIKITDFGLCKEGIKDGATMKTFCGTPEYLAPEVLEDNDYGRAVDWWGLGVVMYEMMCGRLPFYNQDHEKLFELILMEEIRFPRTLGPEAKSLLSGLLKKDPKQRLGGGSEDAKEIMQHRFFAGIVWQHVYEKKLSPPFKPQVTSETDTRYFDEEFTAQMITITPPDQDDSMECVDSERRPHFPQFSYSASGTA

c-Src = target: T2, c-Src (Homo sapiens, UniProt P12931); assay: HotSpot radiometric kinase assay, c-Src; format: biochemical; settings: 5 uM compound, 10 μM ATP, duplicate (Data 1, Data 2)
T2 construct: purchased Reaction Biology Corporation
T2 sequence (P12931 whole entry): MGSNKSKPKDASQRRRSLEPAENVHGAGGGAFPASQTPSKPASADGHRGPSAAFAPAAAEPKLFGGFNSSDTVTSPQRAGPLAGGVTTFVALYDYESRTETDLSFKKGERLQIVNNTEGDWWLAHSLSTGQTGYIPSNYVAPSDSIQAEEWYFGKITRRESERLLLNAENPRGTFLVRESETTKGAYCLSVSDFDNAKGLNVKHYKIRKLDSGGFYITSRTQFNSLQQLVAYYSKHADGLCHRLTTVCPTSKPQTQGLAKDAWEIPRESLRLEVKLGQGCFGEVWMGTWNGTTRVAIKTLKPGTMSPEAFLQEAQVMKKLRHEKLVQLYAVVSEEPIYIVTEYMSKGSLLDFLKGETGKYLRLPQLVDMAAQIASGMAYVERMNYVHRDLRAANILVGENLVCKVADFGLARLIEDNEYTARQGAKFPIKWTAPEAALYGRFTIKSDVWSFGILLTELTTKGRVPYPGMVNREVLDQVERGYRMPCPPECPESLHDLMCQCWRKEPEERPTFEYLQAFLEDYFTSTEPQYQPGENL
Procedure: (§3) Briefly, this assay employs a radiometric detection system to measure kinase phosphoryl transfer activity.
(§4) Test compound was evaluated at a single dose of 5 μM in duplicate mode. […] Reactions were carried out at 10 μM ATP.
(§5) Preliminary screen against AKT, c-Src, ERK1, JaK1 and JaK2 was performed at Reaction Biology Corporation (www.reactionbiology.com, Malvern, Pa.) using the “HotSpot” assay platform. Specific kinase/substrate pairs along with their required cofactors were prepared in reaction buffer; 20 mM Hepes pH 7.5, 10 mM MgCl2, 1 mM EGTA, 0.02% Brij35, 0.02 mg/ml BSA, 0.1 mM Na3VO4, 2 mM DTT, 1% DMSO. The screen was completed in duplicate at a single concentration of 5 μM. The reaction well with the subject compound was treated with a mixture of ATP (Sigma, St. Louis Mo.) and ^33P ATP (Perkin Elmer, Waltham Mass.) to a final concentration of 10 μM. […] Reaction wells were kept at room temperature for 120 minutes, followed by spotting each of the reactions onto P81 ion exchange filter paper (Whatman Inc., Piscataway, N.J.). […] Background was subtracted using control reactions and the kinase activity data was expressed as the percent remaining kinase activity in test samples compared to vehicle (dimethyl sulfoxide) reactions. All IC50 values (table 3) and curve fitting were produced using Prism (GraphPad Software) (FIG. 5).

ERK1 = target: T3, ERK1 (Homo sapiens, UniProt P27361); assay: HotSpot radiometric kinase assay, ERK1; format: biochemical; settings: 5 uM compound, 10 μM ATP, duplicate (Data 1, Data 2)
T3 construct: purchased Reaction Biology Corporation
T3 sequence (P27361 whole entry): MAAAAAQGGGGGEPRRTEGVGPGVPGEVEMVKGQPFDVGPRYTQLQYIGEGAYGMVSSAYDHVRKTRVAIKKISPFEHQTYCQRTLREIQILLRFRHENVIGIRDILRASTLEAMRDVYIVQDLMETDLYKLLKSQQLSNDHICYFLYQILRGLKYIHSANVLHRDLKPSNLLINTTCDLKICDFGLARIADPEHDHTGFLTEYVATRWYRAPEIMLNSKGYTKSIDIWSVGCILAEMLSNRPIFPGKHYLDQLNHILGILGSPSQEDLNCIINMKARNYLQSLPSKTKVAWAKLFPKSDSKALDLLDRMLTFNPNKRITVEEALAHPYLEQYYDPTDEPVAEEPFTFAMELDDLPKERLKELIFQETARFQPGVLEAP

JAK2 = target: T4, JAK2 (Homo sapiens, UniProt O60674); assay: HotSpot radiometric kinase assay, JAK2; format: biochemical; settings: 5 uM compound, 10 μM ATP, duplicate (Data 1, Data 2)
T4 construct: purchased Reaction Biology Corporation
T4 sequence (O60674 whole entry): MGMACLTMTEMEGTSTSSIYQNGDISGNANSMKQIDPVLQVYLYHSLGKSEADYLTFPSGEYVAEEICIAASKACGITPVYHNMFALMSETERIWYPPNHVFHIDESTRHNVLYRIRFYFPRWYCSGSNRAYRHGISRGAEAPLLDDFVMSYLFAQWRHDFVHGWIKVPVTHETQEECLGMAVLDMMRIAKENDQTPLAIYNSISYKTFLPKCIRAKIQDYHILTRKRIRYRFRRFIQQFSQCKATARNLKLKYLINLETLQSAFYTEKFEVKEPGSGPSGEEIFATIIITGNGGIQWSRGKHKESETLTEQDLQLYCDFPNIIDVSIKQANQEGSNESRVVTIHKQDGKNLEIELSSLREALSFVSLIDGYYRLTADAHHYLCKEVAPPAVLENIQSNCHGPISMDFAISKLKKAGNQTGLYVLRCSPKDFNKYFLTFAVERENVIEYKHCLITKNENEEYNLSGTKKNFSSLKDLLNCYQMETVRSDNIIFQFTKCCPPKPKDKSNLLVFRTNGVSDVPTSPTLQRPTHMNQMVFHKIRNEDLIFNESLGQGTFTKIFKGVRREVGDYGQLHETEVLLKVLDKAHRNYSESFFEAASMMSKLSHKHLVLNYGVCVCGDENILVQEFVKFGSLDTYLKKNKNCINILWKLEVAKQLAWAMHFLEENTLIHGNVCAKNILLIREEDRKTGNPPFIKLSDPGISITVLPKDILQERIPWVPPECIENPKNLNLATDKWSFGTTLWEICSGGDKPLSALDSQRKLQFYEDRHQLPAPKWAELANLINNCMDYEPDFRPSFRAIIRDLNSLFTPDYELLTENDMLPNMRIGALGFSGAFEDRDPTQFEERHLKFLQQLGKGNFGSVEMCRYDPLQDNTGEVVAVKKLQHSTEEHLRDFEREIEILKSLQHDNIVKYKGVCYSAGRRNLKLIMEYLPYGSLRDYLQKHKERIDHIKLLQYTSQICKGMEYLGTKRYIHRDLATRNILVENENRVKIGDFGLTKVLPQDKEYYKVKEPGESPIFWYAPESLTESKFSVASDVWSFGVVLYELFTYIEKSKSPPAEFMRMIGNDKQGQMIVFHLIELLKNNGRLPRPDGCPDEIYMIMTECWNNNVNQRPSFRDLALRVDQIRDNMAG
Procedure: as §3, §4, §5

JAK1 = target: T5, JAK1 (Homo sapiens, UniProt P23458); assay: HotSpot radiometric kinase assay, JAK1; format: biochemical; settings: 5 uM compound, 10 μM ATP, duplicate (Data 1, Data 2)
T5 construct: purchased Reaction Biology Corporation
T5 sequence (P23458 whole entry): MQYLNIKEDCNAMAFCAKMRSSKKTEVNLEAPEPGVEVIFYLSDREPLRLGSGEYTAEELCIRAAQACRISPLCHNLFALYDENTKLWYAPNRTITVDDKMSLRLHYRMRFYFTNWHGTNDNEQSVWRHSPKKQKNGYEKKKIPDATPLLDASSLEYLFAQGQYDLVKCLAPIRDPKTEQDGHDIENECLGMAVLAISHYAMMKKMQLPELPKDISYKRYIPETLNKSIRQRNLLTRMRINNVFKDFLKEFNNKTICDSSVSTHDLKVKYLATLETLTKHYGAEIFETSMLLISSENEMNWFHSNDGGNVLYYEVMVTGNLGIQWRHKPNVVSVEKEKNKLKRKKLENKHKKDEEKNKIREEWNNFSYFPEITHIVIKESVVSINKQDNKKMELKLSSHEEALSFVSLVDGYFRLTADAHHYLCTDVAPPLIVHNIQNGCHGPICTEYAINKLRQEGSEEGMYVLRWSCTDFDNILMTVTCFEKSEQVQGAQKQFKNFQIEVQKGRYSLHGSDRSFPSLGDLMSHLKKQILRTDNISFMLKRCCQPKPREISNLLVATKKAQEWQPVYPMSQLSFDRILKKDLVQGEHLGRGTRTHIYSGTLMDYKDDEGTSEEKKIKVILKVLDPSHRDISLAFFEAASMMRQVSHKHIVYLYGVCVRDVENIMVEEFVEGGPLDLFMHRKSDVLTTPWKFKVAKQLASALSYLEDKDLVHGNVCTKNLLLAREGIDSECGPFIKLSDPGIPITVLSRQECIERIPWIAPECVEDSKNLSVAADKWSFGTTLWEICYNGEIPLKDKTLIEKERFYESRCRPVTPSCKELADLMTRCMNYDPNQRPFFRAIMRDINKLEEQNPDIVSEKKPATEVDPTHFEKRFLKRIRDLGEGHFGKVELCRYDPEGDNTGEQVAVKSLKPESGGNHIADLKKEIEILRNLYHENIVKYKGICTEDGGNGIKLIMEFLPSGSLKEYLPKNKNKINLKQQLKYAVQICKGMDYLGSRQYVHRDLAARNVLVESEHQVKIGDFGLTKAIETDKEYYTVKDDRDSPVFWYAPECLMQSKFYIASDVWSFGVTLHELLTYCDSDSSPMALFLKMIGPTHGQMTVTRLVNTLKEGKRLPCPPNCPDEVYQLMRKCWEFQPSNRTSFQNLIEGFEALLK
Procedure: as §3, §4, §5

[4] = read-out: IC50 BTSC 30M, Table 6, in parallel with other cancer lines
[5] = Table 4 library screen, read-out: 73M IC50
[6] = read-out: 30M IC50 (μM), Table 4 library screen, alamarBlue
[7] = Table 4 library screen, alamarBlue

CC(=O)Oc1cc(N(Cc2ccc(C3CCCCC3)cc2)C(=O)CN(C)S(=O)(=O)c2c(F)c(F)c(F)c(F)c2F)ccc1C(=O)O [SH-04-08, 2-acetoxy-4-(N-(4-cyclohexylbenzyl)-2-(2,3,4,5,6-pentafluoro-N-methylphenylsulfonamido)acetamido)benzoic acid]
IC50 [1]: < 1000 nM
IC50 (BTSC30M; [4]): 0.9 µM
IC50 [2]: < 1000 nM
IC50 (Prostate (DU145)): 12000 nM

CN(CC(=O)N(Cc1ccc(C2CCCCC2)cc1)c1ccc(C(=O)O)c(F)c1)S(=O)(=O)c1c(F)c(F)c(F)c(F)c1F [Compound 33, 4-(N-(4-cyclohexylbenzyl)-2-(2,3,4,5,6-pentafluoro-N-methylphenylsulfonamido)acetamido)-2-fluorobenzoic acid]
IC50 (147EF): 935 nM
IC50 (BTSC73M; [5]): 1.23 µM
IC50 (BTSC68EF): 1460 nM
IC50 [1]: < 1000 nM
IC50 (BTSC30M; [6]): 0.724 µM
IC50 (BTSC30M; read-out: IC50 (nM) in BTSC 30M): 0.724 ± 0.013 µM
IC50 (BTSC30M; [4]): 0.689 µM
EC50 (BTSCs; Homo sapiens, collective range over 8 BTSC lines, read-out: EC50s across all 8 BTSCs evaluated): 66 to 1140 nM
IC50 (BTSCs; Homo sapiens, collective range, units given in the value, read-out: IC50 values of the top four ranked compounds against BTSCs): 100 to 3800 nM
IC50 [2]: < 1000 nM
IC50 (Prostate (DU145)): 14200 nM

C[C@H](NC(=O)/C(C#N)=C/c1cccc(Br)n1)c1ccccc1 [WP1066, reference compound]
IC50 (BTSC73M; Table 2, BTSC 73M, 72 hrs, read-out: IC50 (μM) 73M): 2.1 µM
IC50 (BTSC30M; read-out: IC50 (μM) 30M, Table 2, BTSC 30M, alamarBlue, 72 hrs): 1.8 ± 0.22 µM
pSTAT3 suppression, comparative Western blot (pSTAT3 (Y705)): equipotent pSTAT3 suppression

CN(CC(=O)N(Cc1ccc(C2CCCCC2)cc1)c1ccc(C(=O)O)c(O)c1)S(=O)(=O)c1c(F)c(F)c(F)c(F)c1F [Compound 1, reference compound]
activity against BTSCs (in words) (BTSCs; cytotoxicity, alamarBlue): low μM activity

CC(=O)Oc1cc(N(Cc2ccc(C3CCCCC3)cc2)C(=O)CN(C)S(=O)(=O)c2ccc(C)cc2)ccc1C(=O)O [Compound 23, 2-acetoxy-4-(N-(4-cyclohexylbenzyl)-2-(N,4-dimethylphenylsulfonamido)acetamido)benzoic acid]
147EF IC50 (μM) (147EF): no effect
73M IC50 (μM) (BTSC73M; Table 4 library screen): no effect
68EF IC50 (μM) (BTSC68EF): no effect
30M IC50 (μM) (BTSC30M; [7]): no effect

Cc1ccc(S(=O)(=O)N(C)CC(=O)N(Cc2ccc(C3CCCCC3)cc2)c2ccc(C(=O)O)c(F)c2)cc1 [Compound 43, 4-(N-(4-cyclohexylbenzyl)-2-(N,4-dimethylphenylsulfonamido)acetamido)-2-fluorobenzoic acid]
147EF IC50 (μM) (147EF): no effect
73M IC50 (μM) (BTSC73M; Table 4 library screen): no effect
68EF IC50 (μM) (BTSC68EF): no effect
30M IC50 (μM) (BTSC30M; [7]): no effect

Cc1ccc(S(=O)(=O)N(C)CC(=O)N(Cc2ccc(C3CCCCC3)cc2)c2ccc([N+](=O)[O-])cc2)cc1 [Compound 9, N-(4-cyclohexylbenzyl)-2-(N,4-dimethylphenylsulfonamido)-N-(4-nitrophenyl)acetamide]
147EF IC50 (μM) (147EF): no effect
73M IC50 (μM) (BTSC73M; Table 4 library screen): no effect
68EF IC50 (μM) (BTSC68EF): no effect
30M IC50 (μM) (BTSC30M; [7]): no effect

CN(CC(=O)N(Cc1ccc(C2CCCCC2)cc1)c1ccc(N)cc1)S(=O)(=O)c1c(F)c(F)c(F)c(F)c1F [Compound 10, N-(4-aminophenyl)-N-(4-cyclohexylbenzyl)-2-(2,3,4,5,6-pentafluoro-N-methylphenylsulfonamido)acetamide]
IC50 (147EF): 1460 nM
IC50 (BTSC73M; [5]): 1.81 µM
IC50 (BTSC68EF): 1720 nM
IC50 (BTSC30M; [6]): 1.33 µM

CN(CC(=O)N(Cc1ccc(C2CCCCC2)cc1)c1ccc(NC(=O)Cc2nnn[nH]2)cc1)S(=O)(=O)c1c(F)c(F)c(F)c(F)c1F [Compound 41, N-(4-(2-(1H-tetrazol-5-yl)acetamido)phenyl)-N-(4-cyclohexylbenzyl)-2-(2,3,4,5,6-pentafluoro-N-methylphenylsulfonamido)acetamide]
IC50 (BTSC73M; [5]): 3.5 µM
IC50 [3]: 16400 nM

CC(=O)Oc1cc(N(Cc2ccc(C3CCCCC3)cc2)C(=O)CN(C)S(=O)(=O)c2ccc(C)cc2)ccc1C(=O)O [SH-05-19, 2-acetoxy-4-(N-(4-cyclohexylbenzyl)-2-(N,4-dimethylphenylsulfonamido)acetamido)benzoic acid]
remaining activity at 5 µM (AKT1; read-out: % Enzyme activity relative to DMSO (control), AKT1): 90.6%
% Enzyme activity relative to DMSO (control), AKT1 (AKT1; remaining activity): 87.91%
remaining activity at 5 µM (c-Src; read-out: % Enzyme activity relative to DMSO (control), c-Src): 41.6%
% Enzyme activity relative to DMSO (control), c-Src (c-Src; remaining activity): 39.16%
remaining activity at 5 µM (ERK1; read-out: % Enzyme activity relative to DMSO (control), ERK1): 119%
% Enzyme activity relative to DMSO (control), ERK1 (ERK1; remaining activity): 126.49%
IC50 [1]: < 1000 nM
remaining activity at 5 µM (JAK2; read-out: % Enzyme activity relative to DMSO (control), JAK2): 46.1%
% Enzyme activity relative to DMSO (control), JAK2 (JAK2; remaining activity): 47.70%
IC50 (BTSC30M; [4]): 0.505 µM
remaining activity at 5 µM (JAK1; read-out: % Enzyme activity relative to DMSO (control), JAK1): 98.3%
% Enzyme activity relative to DMSO (control), JAK1 (JAK1; remaining activity): 97.79%
IC50 [2]: < 1000 nM
IC50 (Prostate (DU145)): 9800 nM

CN(CC(=O)N(Cc1ccc(C2CCCCC2)cc1)c1ccc([N+](=O)[O-])cc1)S(=O)(=O)c1c(F)c(F)c(F)c(F)c1F [Compound 8, N-(4-cyclohexylbenzyl)-N-(4-nitrophenyl)-2-(2,3,4,5,6-pentafluoro-N-methylphenylsulfonamido)acetamide]
IC50 (147EF): 669 nM
IC50 (BTSC73M; [5]): 1.1 µM
IC50 (BTSC68EF): 590 nM
IC50 (BTSC30M; [6]): 0.522 µM
